Patent US20010000783A1, “Treatment of interstitial cystitis” (priority 1998, published 2001)

Test system: Normal human bladder epithelial cells
Assay: Inhibition of APF activity by recombinant growth factors, low molecular weight urine fractions, 3H-thymidine incorporation
Assay type: cell-based
Conditions: simultaneous exposure to recombinant growth factor and <3 kDa urine fraction, 48 hours; HB-EGF 0-100 ng/ml (effect evident at 10 ng/ml), EGF 0-100 ng/ml, IGF-1 0-300 pg/ml; FIGS. 6A-6C
Experimental: Primary normal adult human bladder epithelial (HBE) cells were cultured by the method described above in Part II. On the third day of incubation, cell medium was replaced by serum free MEM containing the less than 3 kDa fraction (i.e, containing the APF) of urine specimens from IC patients or controls (i.e., that part containing the anti-proliferative factor or APF described in related application Ser. No. 08/944,202), or HPLC-purified APF or its mock control along with varying concentrations of recombinant HB-EGF (0-100 ng/ml), EGF (0-100 ng/ml), or IGF-1 (0-300 pg/ml) [all from R & D Systems, Minneapolis, Minn.] diluted in phosphate buffered saline (1:1:1). Urine was prepared by the method described above in Part II and HPLC purified APF was prepared as described above. Following an additional 48 hours of incubation at 37 degrees C. in a 5% CO2 atmosphere, cell proliferation was assessed by ^3H-thymidine incorporation according to the published methods^38.
Normal human bladder epithelial cells were exposed simultaneously to recombinant human growth factors (HB-EGF, EGF, or IGF1) and low molecular weight fractions from IC patients or control urine specimens. Cell proliferation was determined 48 hours later by 3H-thymidine incorporation (FIGS. 6A-6C). Bar values indicate the mean of 5-8 determinations. Vertical lines indicate the standard error of the mean.

IGF1: recombinant insulin-like growth factor 1 from R & D Systems
inhibition of APF antiproliferative activity: unable to completely inhibit APF activity

epidermal growth factor (NSDSECPLSHDGYCLHDGVCMYIEALDKYACNCVVGYIGERCQYRDLKWWELR; UniProt P01133 971-1023, looked up) [EGF, recombinant epidermal growth factor from R & D Systems]
inhibition of APF antiproliferative activity: unable to completely inhibit APF activity
